Legend:
pigweed [1] = test: Test A preemergence; assay type: in vivo, Amaranthus retroflexus
In short: (§1)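 Compounds in non-phytotoxic solvent with surfactant applied as soil spray preemergence, or postemergence to plants 2-10 cm at one- to two-leaf stage, in loam/sand. After approximately 10 days in greenhouse, injury rated visually versus untreated controls, 0 (no effect) to 100 (complete control).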

barnyardgrass [2] = test: Test C flooded paddy test; assay type: in vivo, Echinochloa crus-galli; settings: Flood, scale 0 to 100 (0 no effect, 100 complete control), 13 to 15 days
Description: (§2) At time of treatment, test pots were flooded to 3 cm above the soil surface, treated by application of test compounds directly to the paddy water, and then maintained at that water depth for the duration of the test. Treated plants and controls were maintained in a greenhouse for 13 to 15 days, after which time all species were compared to controls and visually evaluated. […] A dash (-) response means no test result.

barnyardgrass [3] = test: Test B flooded paddy test; assay type: in vivo, Echinochloa crus-galli; settings: Flood, 250 g ai/ha; 0 to 100 scale where 0 is no effect and 100 is complete control
In short: (§3)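 Compound added straight to paddy water, with pots kept flooded 3 cm above soil, on plants grown to the 2-leaf stage. Visual scoring 0-100 (100 = complete control) against untreated controls after 13 to 15 greenhouse days.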

sedge, umbrella [4] = test: Test C flooded paddy test; assay type: in vivo, Cyperus difformis; settings: Flood, scale 0 to 100 (0 no effect, 100 complete control), 13 to 15 days
Description: as §2

pigweed [5] = test: Test A postemergence; assay type: in vivo, Amaranthus retroflexus; settings: 0 to 100 scale where 0 is no effect and 100 is complete control
In short: as §1

velvetleaf [6] = test: Test A preemergence; assay type: in vivo, Abutilon theophrasti
In short: as §1

Heteranthera limosa = test: Test B flooded paddy test; assay type: in vivo; settings: Flood, 250 g ai/ha; 0 to 100 scale where 0 is no effect and 100 is complete control
In short: as §3

giant foxtail [7] = test: Test A postemergence; assay type: in vivo, Setaria faberii; settings: 0 to 100 scale where 0 is no effect and 100 is complete control
In short: as §1

giant foxtail [8] = test: Test A preemergence; assay type: in vivo, Setaria faberii
In short: as §1

barnyardgrass [9] = test: Test A preemergence; assay type: in vivo, Echinochloa crus-galli
In short: as §1

corn [10] = test: Test A postemergence; assay type: in vivo, Zea mays; settings: 0 to 100 scale where 0 is no effect and 100 is complete control
In short: as §1

ducksalad = test: Test C flooded paddy test; assay type: in vivo, Heteranthera limosa; settings: Flood, scale 0 to 100 (0 no effect, 100 complete control), 13 to 15 days
Description: as §2

wheat [11] = test: Test A postemergence; assay type: in vivo, Triticum aestivum; settings: 0 to 100 scale where 0 is no effect and 100 is complete control
In short: as §1

rice [12] = test: Test C flooded paddy test; assay type: in vivo, Oryza sativa; settings: Flood, scale 0 to 100 (0 no effect, 100 complete control), 13 to 15 days
Description: as §2

morningglory [13] = test: Test A preemergence; assay type: in vivo, Ipomoea spp.
In short: as §1

sedge, umbrella [14] = test: Test B flooded paddy test; assay type: in vivo, Cyperus difformis; settings: Flood, 250 g ai/ha; 0 to 100 scale where 0 is no effect and 100 is complete control
In short: as §3

large (Lg) crabgrass [15] = test: Test A preemergence; assay type: in vivo, Digitaria sanguinalis
In short: as §1

large (Lg) crabgrass [16] = test: Test A postemergence; assay type: in vivo, Digitaria sanguinalis; settings: 0 to 100 scale where 0 is no effect and 100 is complete control
In short: as §1

rice [17] = test: Test B flooded paddy test; assay type: in vivo, Oryza sativa; settings: Flood, 250 g ai/ha; 0 to 100 scale where 0 is no effect and 100 is complete control
In short: as §3

morningglory [18] = test: Test A postemergence; assay type: in vivo, Ipomoea spp.; settings: 0 to 100 scale where 0 is no effect and 100 is complete control
In short: as §1

wheat [19] = test: Test A preemergence; assay type: in vivo, Triticum aestivum
In short: as §1

corn [20] = test: Test A preemergence; assay type: in vivo, Zea mays
In short: as §1

barnyardgrass [21] = test: Test A postemergence; assay type: in vivo, Echinochloa crus-galli; settings: 0 to 100 scale where 0 is no effect and 100 is complete control
In short: as §1

velvetleaf [22] = test: Test A postemergence; assay type: in vivo, Abutilon theophrasti; settings: 0 to 100 scale where 0 is no effect and 100 is complete control
In short: as §1

[23] = 500 g ai/ha, 0 to 100 scale where 0 is no effect and 100 is complete control

## FC(F)c1cccc(Oc2ncc(Br)cn2)c1-n1cc(I)cn1 [Compound 185]
Pigweed [1]; 125 g ai/ha
  Pigweed plant response rating (0 to 100 scale): 100
Pigweed [1]; [23]
  Pigweed plant response rating: 100
Barnyardgrass [2]; 31 g ai/ha
  Plant response rating, Barnyardgrass: 0
Barnyardgrass [2]; 62 g ai/ha
  Plant response rating, Barnyardgrass: 0
Barnyardgrass [2]; 125 g ai/ha
  Plant response rating, Barnyardgrass: 0
Barnyardgrass [2]; 250 g ai/ha
  Plant response rating, Barnyardgrass: 0
Barnyardgrass [3]
  Plant response rating, Barnyardgrass: 0
sedge, umbrella [4]; 31 g ai/ha
  Plant response rating, Sedge, Umbrella: 0
sedge, umbrella [4]; 62 g ai/ha
  Plant response rating, Sedge, Umbrella: 50
sedge, umbrella [4]; 125 g ai/ha
  Plant response rating, Sedge, Umbrella: 50
sedge, umbrella [4]; 250 g ai/ha
  Plant response rating, Sedge, Umbrella: 85
Pigweed [5]; 125 g ai/ha
  Pigweed plant response rating: 100
Pigweed [5]; 500 g ai/ha
  Plant response rating, Pigweed: 100
Velvetleaf [6]; 125 g ai/ha
  Velvetleaf plant response rating (0 to 100 scale): 40
Velvetleaf [6]; [23]
  Velvetleaf plant response rating: 80
Heteranthera limosa
  Plant response rating, Ducksalad: 95
Giant foxtail [7]; 125 g ai/ha
  Foxtail, Giant plant response rating: 50
Giant foxtail [7]; 500 g ai/ha
  Plant response rating, Foxtail, Giant: 80
Giant foxtail [8]; 125 g ai/ha
  Foxtail, Giant plant response rating (0 to 100 scale): 90
Giant foxtail [8]; [23]
  Foxtail, Giant plant response rating: 100
Barnyardgrass [9]; 125 g ai/ha
  Barnyardgrass plant response rating (0 to 100 scale, 0 is no effect, 100 is complete control): 40
Barnyardgrass [9]; [23]
  Barnyardgrass plant response rating: 80
Corn [10]; 125 g ai/ha
  Corn plant response rating: 10
Corn [10]; 500 g ai/ha
  Plant response rating, Corn: 20
ducksalad; 31 g ai/ha
  Plant response rating, Ducksalad: 0
ducksalad; 62 g ai/ha
  Plant response rating, Ducksalad: 0
ducksalad; 125 g ai/ha
  Plant response rating, Ducksalad: 0
ducksalad; 250 g ai/ha
  Plant response rating, Ducksalad: 40
Wheat [11]; 125 g ai/ha
  Wheat plant response rating: 0
Wheat [11]; 500 g ai/ha
  Plant response rating, Wheat: 40
Rice [12]; 31 g ai/ha
  Plant response rating, Rice: 0
Rice [12]; 62 g ai/ha
  Plant response rating, Rice: 0
Rice [12]; 125 g ai/ha
  Plant response rating, Rice: 0
Rice [12]; 250 g ai/ha
  Plant response rating, Rice: 15
Morningglory [13]; 125 g ai/ha
  Morningglory plant response rating (0 to 100 scale): 10
Morningglory [13]; [23]
  Morningglory plant response rating: 30
sedge, umbrella [14]
  Plant response rating, Sedge, Umbrella: 90
Large (Lg) crabgrass [15]; 125 g ai/ha
  Crabgrass, Large plant response rating (0 to 100 scale): 90
Large (Lg) crabgrass [15]; [23]
  Crabgrass, Large plant response rating: 100
Large (Lg) crabgrass [16]; 125 g ai/ha
  Crabgrass, Large plant response rating: 60
Large (Lg) crabgrass [16]; 500 g ai/ha
  Plant response rating, Crabgrass, Large: 90
Rice [17]
  Plant response rating, Rice: 0
Morningglory [18]; 125 g ai/ha
  Morningglory plant response rating: 70
Morningglory [18]; 500 g ai/ha
  Plant response rating, Morningglory: 90
Wheat [19]; 125 g ai/ha
  Wheat plant response rating (0 to 100 scale): 0
Wheat [19]; [23]
  Wheat plant response rating: 10
Corn [20]; 125 g ai/ha
  Corn plant response rating (0 to 100 scale): 0
Corn [20]; [23]
  Corn plant response rating: 10
Barnyardgrass [21]; 125 g ai/ha
  Barnyardgrass plant response rating: 50
Barnyardgrass [21]; 500 g ai/ha
  Plant response rating, Barnyardgrass: 80
Velvetleaf [22]; 125 g ai/ha
  Velvetleaf plant response rating: 90
Velvetleaf [22]; 500 g ai/ha
  Plant response rating, Velvetleaf: 100
